Assay [1] deals with T1, NLRP3 inflammasome (Homo sapiens, UniProt Q96P20).
T1 construct: freshly isolated from human peripheral blood from healthy donors; StemCells Technologies; host or cells: primary human PBMCs
Description: NLRP3 inflammasome activation assay in LPS-primed, nigericin-stimulated PBMCs, IL-1β release. It is filed as cell-based. To be noted: 10 μM nigericin. How it is done:
Some of the following assays were used to determine the inhibitory activity of the compounds on the NLRP3 inflammasome using a common inflammasome activation stimuli-nigericin.
(§1) Human peripheral blood mononuclear cells (PBMCs), consisting of lymphocytes (T, B and NK cells), monocytes and dendritic cells, are freshly isolated from human peripheral blood from healthy donors. Cells are obtained through an IRB approved donor program by iXCells Biotechnologies where all the donors are tested for bacterial and viral infections. Cells are purified from peripheral blood using ficoll gradient centrifugation.
(§2) Fresh or cryopreserved PMBCs are seeded in V-bottom 96-well plate at 0.5-1×10^5 cells per well and incubated overnight at 37° C. with 5% CO2 in RPMI 1640 medium with GlutaMAX supplement, 4.5 g/L D-glucose, 10% Fetal Bovine Serum (FBS), […] Sodium Pyruvate, 1% Penicillin/Streptomycin, 10 mM HEPES and 0.05 mM of […]. Freshly isolated or cryopreserved KCs cells are seeded in flat-bottom 96-well plates at 0.6-1.5×10^5 cells/well and incubated overnight at 37° C., 5% CO2 in RPMI 1640 Medium with GlutaMAX supplement, FBS, 1% Penicillin/Streptomycin and 10 mM HEPES. The following day, the cells are primed with 100 ng/mL of lipopolysaccharides (LPS; Sigma Aldrich) in FBS-free RPMI 1640 for 3 h. After the priming step, the media is removed and PBMCs are pre-incubated with serial concentrations of test compounds (0.00017-10 uM) or vehicle (DMSO) for 30 min in FBS-free media prior to addition of the NLRP3 activator. Cells are then stimulated with 10 μM Nigericin (Sigma Aldrich; InvivoGen) for 1.5 h. Plates were centrifuged at 1,500 rpm for 3 minutes to pellet cells and supernatant was transferred into new plates for subsequent experiments.
For ELISA assays cells are seeded into 96-well plates. Post study, supernatants are removed and the levels of mature IL-1β, IL18 and TNFα (Quantikine ELISA, R&D systems) are measured in cell conditioned media by ELISA according to manufacturer's instructions.
Human frozen PBMCs were purchased from StemCells Technologies. Cells were rapidly thawed in 37° C. water bath and resuspended in fresh assay media consisting of RPMI 1640 Medium containing 1% sodium pyruvate, 10 mM HEPES, 2.5 g/L glucose and 55 μM 2-Mercaptoethanol. Cell density was adjusted to 8.1×10^5 cells/mL. Cells were primed by adding lipopolysaccharide (Invivogen Ultrapure lipopolysaccharide from E. coli, tlrl-3pelps) at a final concentration of 100 ng/mL in cell suspension. 37 μL of cell suspension with LPS was seeded per well of a 384 well plate and incubated for 3 hours at 37° C. and 5% CO2. After priming, PBMCs were preincubated with serially diluted test compounds with starting concentration of 40 μM followed by 2-fold dilution for a 20-point curve or vehicle (DMSO) for 30 min in assay media at 37° C. and 5% CO2. Cells were then stimulated with 10 μM nigericin (Invivogen, tlrl-nig-5) for 90 min at 37° C. and 5% CO2 to activate NLRP3 dependent inflammasome pathway and IL-1β release in cell culture supernatant. Cells were centrifuged at 1200 RPM for 1 min and 40 μL of supernatant was transferred into fresh plates and stored at −80° C. until IL-1β analysis.
16 μL of supernatant was added to white 384 well HTRF plates, followed by addition of 4 μL of HTRF cocktail in each well. Plates were quickly centrifuged, sealed and incubated overnight at room temperature. Next day, HTRF signal was read on a Pherastar and ratio of 665/620 was calculated based on manufacturer's protocol to obtain concentration of IL-1β in cell culture supernatant.

Assay [2] relates to PBMCs. Description: CTG (CellTiter-Glo) viability assay of compound-treated LPS and nigericin stimulated PBMCs. It is filed as cell-based, human. On the procedure:
as §1, §2
Viability of compound treated cells is measured using CellTiter-Glo® assay (Promega, Madison, Wis.) that measures the ATP content of cells which is proportional to the number of live cells within a well. This is a counter-screen to establish that the reduction of IL-1β levels in LPS and nigericin stimulated and compound treated cells is not due to cytotoxicity, but rather through the inhibition of the inflammasome pathway. Compounds inhibiting NRLP3 inflammasome activation ultimately increase the viability of LPS and nigericin stimulated cells by blocking NLRP3 mediated pyroptosis that would otherwise lead to cell lysis.

Setting [3] is: LPS 100 ng/mL priming, read-out: IL-1B pIC50 (converted).
Setting [4] is: LPS and nigericin stimulated cells, read-out: CTG pIC50 (converted).
Setting [5] is: PBMC, LPS priming, read-out: PMBC IL-1β IC50.
Setting [6] is: Homo sapiens, PBMC, read-out: PMBC CTG IC50.
Setting [7] is: Homo sapiens, PBMC, LPS and nigericin stimulated cells, read-out: CTG pIC50 (converted).

Where two headings read alike, the source gives them in different places. Where only a bound is given, the exact number is not on record here.

T1 sequence (Q96P20 whole entry): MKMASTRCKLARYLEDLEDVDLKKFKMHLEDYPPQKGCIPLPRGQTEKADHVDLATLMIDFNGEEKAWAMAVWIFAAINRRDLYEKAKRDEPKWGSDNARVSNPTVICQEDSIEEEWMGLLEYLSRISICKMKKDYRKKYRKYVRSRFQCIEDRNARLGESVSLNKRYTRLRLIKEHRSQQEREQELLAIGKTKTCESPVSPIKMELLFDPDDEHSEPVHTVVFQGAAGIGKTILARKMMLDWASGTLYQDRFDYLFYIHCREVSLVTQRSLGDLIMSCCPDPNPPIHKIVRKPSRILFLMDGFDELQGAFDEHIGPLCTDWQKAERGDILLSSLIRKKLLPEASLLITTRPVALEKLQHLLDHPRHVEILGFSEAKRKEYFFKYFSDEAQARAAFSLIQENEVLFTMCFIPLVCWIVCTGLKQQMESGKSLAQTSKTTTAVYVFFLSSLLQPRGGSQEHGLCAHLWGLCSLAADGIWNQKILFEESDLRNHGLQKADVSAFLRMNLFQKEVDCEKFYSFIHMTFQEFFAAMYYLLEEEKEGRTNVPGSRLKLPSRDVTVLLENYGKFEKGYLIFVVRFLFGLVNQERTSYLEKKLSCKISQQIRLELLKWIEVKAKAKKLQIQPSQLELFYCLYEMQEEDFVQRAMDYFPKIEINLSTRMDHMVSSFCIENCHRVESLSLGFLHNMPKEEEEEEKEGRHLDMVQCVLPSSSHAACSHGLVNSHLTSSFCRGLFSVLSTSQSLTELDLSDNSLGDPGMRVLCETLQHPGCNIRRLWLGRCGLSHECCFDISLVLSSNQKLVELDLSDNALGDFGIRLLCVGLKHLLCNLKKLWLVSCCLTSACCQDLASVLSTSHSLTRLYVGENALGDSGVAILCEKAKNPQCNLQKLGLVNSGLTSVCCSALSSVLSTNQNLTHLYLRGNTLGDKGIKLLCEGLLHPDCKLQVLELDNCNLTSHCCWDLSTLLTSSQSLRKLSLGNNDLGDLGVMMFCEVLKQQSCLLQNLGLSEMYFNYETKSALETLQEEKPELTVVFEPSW

In the case of `CC(C)c1cncc(C(C)C)c1NC(=O)NS(=O)(=O)c1cnn2c1OCCC2` [drawing 394], the figures for the IC50 in assay [1] (setting [3]) and in assay [2] (setting [4]) were 1 to 10 µM and below 0.1 µM, respectively. With `CC(C)c1cc(C2CC2)nc(C(C)C)c1NC(=O)NS(=O)(=O)c1cnn2c1OCCC2` [Example 45, N-((6-cyclopropyl-2,4-diisopropylpyridin-3-yl)carbamoyl)-6,7-dihydro-5H-pyrazolo[5,1-b][1,3]oxazine-3-sulfonamide], the IC50 in assay [1] (setting [5]) was 0.91 µM; in assay [2] (setting [6]), 0.37 µM. Turning to `CO[C@@H]1COc2c(S(=O)(=O)NC(=O)Nc3c(C(C)C)nn(C)c3C(C)C)cnn2C1` [drawing 405], the IC50 is 1 to 10 µM in assay [1] (setting [3]) and 0.1 to 1 µM in assay [2] (setting [7]). As for `CCn1nc(C(C)C)c(NC(=O)NS(=O)(=O)c2cnn3c2OC[C@@H](OC)C3)c1C(C)C` [drawing 406], the IC50 is 1 to 10 µM in assay [1] (setting [3]) and 0.1 to 1 µM in assay [2] (setting [7]).

On to `COc1cc(C(C)C)c(NC(=O)NS(=O)(=O)c2cnn3c2OCCC3)c(C(C)C)n1` [drawing 396], for which the IC50 in assay [1] (setting [3]) and in assay [2] (setting [7]) was 0.1 to 1 µM in each case. With `CC(C)c1ccnc(C(C)C)c1NC(=O)NS(=O)(=O)c1cnn2c1OCCC2` [drawing 398], the IC50 in assay [1] (setting [3]) is 1 to 10 µM; in assay [2] (setting [4]), 0.1 to 1 µM. As for `CN[C@@H]1COc2c(S(=O)(=O)NC(=O)Nc3c(C(C)C)cc(OC)nc3C(C)C)cnn2C1` [drawing 408], the IC50 was 0.1 to 1 µM in assay [1] (setting [3]) and below 0.1 µM in assay [2] (setting [7]). Regarding `CCOc1cc(C(C)C)c(NC(=O)NS(=O)(=O)c2cnn3c2OCCC3)c(C(C)C)n1` [drawing 417], the IC50 in assay [1] (setting [3]) and in assay [2] (setting [7]) was 1 to 10 µM in each case.

Take `CC(C)n1nc2c(c1NC(=O)NS(=O)(=O)c1cnn3c1OCCC3)CCC2` [drawing 411]: the IC50 in assay [1] (setting [3]) is 1 to 10 µM; in assay [2] (setting [7]), above 10 µM.

With `CC(C)c1cc(Cl)nc(C(C)C)c1NC(=O)NS(=O)(=O)c1cnn2c1OCCC2` [Example 32, N-((6-chloro-2,4-diisopropylpyridin-3-yl)carbamoyl)-6,7-dihydro-5H-pyrazolo[5,1-b][1,3]oxazine-3-sulfonamide], the IC50 worked out at 0.59 µM in assay [1] (setting [5]) and 0.92 µM in assay [2] (setting [6]). The corresponding values for `CC(C)c1cc(N(C)C)nc(C(C)C)c1NC(=O)NS(=O)(=O)c1cnn2c1OCCC2` [Example 51, Sodium N-((6-(dimethylamino)-2,4-diisopropylpyridin-3-yl)carbamoyl)-6,7-dihydro-5H-pyrazolo[5,1-b][1,3]oxazine-3-sulfonamide] are 2.07 µM and 1.12 µM.

Regarding `CC(C)c1cc(C2CC2)nc(C(C)C)c1NC(=O)NS(=O)(=O)c1cnn2c1OCCC2` [drawing 412], the IC50 in assay [1] (setting [3]) and in assay [2] (setting [7]) was 0.1 to 1 µM in each case.

As for `O=C(NN1CCCCCC1)NS(=O)(=O)c1cnn2c1OCCC2` [Example 14, N-(azepan-1-ylcarbamoyl)-6,7-dihydro-5H-pyrazolo[5,1-b][1,3]oxazine-3-sulfonamide], the IC50 in assay [1] (setting [5]) is above 10 µM.

Take `O=C(NC1c2ccccc2-c2ccccc21)NS(=O)(=O)c1cnn2c1OCCC2` [drawing 370]: the IC50 in assay [1] (setting [3]) was above 10 µM. For `CC1Cc2ccccc2C1NC(=O)NS(=O)(=O)c1cnn2c1OCCC2` (stereo not shown) [Example 6, N-((2-methyl-2,3-dihydro-1H-inden-1-yl)carbamoyl)-6,7-dihydro-5H-pyrazolo[5,1-b][1,3]oxazine-3-sulfonamide], the IC50 in assay [1] (setting [5]) was above 10 µM. Consider `CC(C)c1nn(C)c(C(C)C)c1NC(=O)NS(=O)(=O)c1cnn2c1OCCC2` [drawing 391], for which, in assay [1] (setting [3]), the IC50 was 1 to 10 µM. In assay [1] (IL-1B pIC50 (μM), LPS 100 ng/mL priming), `COc1cc(C)nc(NC(=O)NS(=O)(=O)c2cnn3c2OCCC3)n1` [drawing 384] returned an IC50 above 10 µM.

Take `O=C(NC1(c2ccccc2)CCCCCC1)NS(=O)(=O)c1cnn2c1OCCC2` [drawing 377]: in assay [1] (setting [3]), the IC50 was above 10 µM. For the compound `O=C(Nc1c(-c2ccccc2)nc2ccccn12)NS(=O)(=O)c1cnn2c1OCCC2` [Example 10, N-((2-phenylimidazo[1,2-a]pyridin-3-yl)carbamoyl)-6,7-dihydro-5H-pyrazolo[5,1-b][1,3]oxazine-3-sulfonamide], the IC50 in assay [1] (setting [5]) is above 10 µM.

Source of the values: patent US11560391B2, “Sulfonylurea compounds as inhibitors of interleukin-1 activity” (Genentech, Inc., priority 2018, dated 2023).
